Experimental data from US20230330188A1, “PHARMACEUTICAL COMBINATION FOR USE IN THE TREATMENT AND/OR PREVENTION OF DIABETES” (INSPHERO AG, priority 2020, published 2023).

Tested on: 3D InSight™ Human Islet Microtissues
Assay: Glucose-stimulated insulin secretion (GSIS) after 13 days of glucolipotoxicity (GLTX) induced islet injury
Type: cell-based
Conditions: GSIS at 16.7 mM glucose, vs GLTX group

Molecule	glucose-stimulated insulin secretion (GSIS) (FIG. 3, long-term (13 days) treatment with 10 μM verapamil alone in glucolipotox medium)	glucose-stimulated insulin secretion (GSIS) (FIG. 2, long-term (13 days) treatment with 1 μM semaglutide alone in glucolipotox medium)
COc1ccc(CCN(C)CCCC(C#N)(c2ccc(OC)c(OC)c2)C(C)C)cc1OC (centres unmarked) [verapamil]	has a positive influence on GSIS	–
semaglutide	–	does not improve the GSIS
